# Laboratory results from patent US10189839B2, “Tricyclic imidazole compounds as inhibitors of tryptophan hydroxylase” (ACTELION PHARMACEUTICALS LTD, priority 2013, dated 2019).
# Biological target: T1, full length human TPH1 (Homo sapiens, UniProt P17752)
# T1 construct: To generate the enzyme, full length human TPH1 is cloned into the plasmid pET20b(+); made in house; host or cells: E. coli
# T1 sequence (P17752 1-444): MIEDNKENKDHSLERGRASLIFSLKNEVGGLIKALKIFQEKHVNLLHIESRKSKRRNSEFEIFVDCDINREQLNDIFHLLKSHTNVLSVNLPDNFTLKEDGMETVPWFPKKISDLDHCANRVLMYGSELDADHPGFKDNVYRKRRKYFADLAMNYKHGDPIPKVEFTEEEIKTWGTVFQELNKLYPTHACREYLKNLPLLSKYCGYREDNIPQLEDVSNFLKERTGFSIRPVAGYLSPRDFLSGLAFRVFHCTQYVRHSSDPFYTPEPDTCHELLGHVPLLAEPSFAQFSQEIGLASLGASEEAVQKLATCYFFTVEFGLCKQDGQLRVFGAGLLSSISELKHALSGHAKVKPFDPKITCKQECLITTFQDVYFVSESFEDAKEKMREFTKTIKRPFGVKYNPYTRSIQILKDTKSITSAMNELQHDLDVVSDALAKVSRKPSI
# Assay: Biochemical in vitro assay using fluorescence readout (TPH1 enzyme activity)
# Conditions: Table 1, mean where determined several times
# Summary of the method: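 E. coli-expressed full-length human TPH1 (40-80 nM), affinity- and size-exclusion-purified, incubated 60 min at 15° C. in 0.1M Tris-HCl pH 7.6 with 1 mM DTT, 0.2 mg/ml catalase, 100 μM 6-methyltetrahydropterine and 40 μM L-tryptophan. 5-Hydroxy-L-tryptophan read by fluorescence (ex 300/em 540 nm) after HClO4 quench; IC50 versus vehicle, mean where repeated.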
row,SMILES,IC50 [nM]
1,"CN(C)C(=O)c1ccc(OCC(=O)N2CCc3nc4n(c3C2c2sc(C(=O)N(C)C)cc2F)CCCC4)c(Cl)n1 (stereo not drawn) [Example 1.4.1, 6-chloro-5-(2-(1-(5-(dimethylcarbamoyl)-3-fluoro-thiophen-2-yl)-3,4,6,7,8,9-hexahydroimidazo[1,2-a:5,4-c′]dipyridin-2(1H)-yl)-2-oxoethoxy)-N,N-dimethyl-picolinamide]",55
2,"CC(C)(O)c1ccc(C2c3c(nc4n3CCCC4)CCN2C(=O)COc2ccc(C(=O)NC3CC3)nc2Cl)c(F)c1 (stereo not drawn) [Example 1.24.1, 6-chloro-N-cyclopropyl-5-(2-(1-(2-fluoro-4-(2-hydroxypropan-2-yl)phenyl)-3,4,6,7,8,9-hexahydroimidazo[1,2-a:5,4-c′]dipyridin-2(1H)-yl)-2-oxoethoxy)picolinamide]",68
3,"CN(C)C(=O)c1ccc(OCC(=O)N2CCc3nc4n(c3C2c2sc(C(=O)N(C)C)cc2F)CCOC4)c(Cl)n1 (stereo not drawn) [Example 6.3.1, 6-chloro-5-(2-(6-(5-(dimethylcarbamoyl)-3-fluoro-thiophen-2-yl)-3,4,8,9-tetrahydro-1H-pyrido[4′,3′:4,5]imidazo[2,1-c][1,4]oxazin-7(6H)-yl)-2-oxoethoxy)-N,N-dimethylpicolinamide]",37
4,"N#Cc1ccc(OCC(=O)N2CCc3nc4n(c3C2c2ccc(C3CC3)cc2F)CCNC4)c(Cl)n1 (stereo not drawn) [Example 5.2.11, 6-chloro-5-(2-(1-(4-cyclopropyl-2-fluorophenyl)-3,4,6,7,8,9-hexahydropyrido[4′,3′:4,5]imidazo[1,2-a]pyrazin-2(1H)-yl)-2-oxoethoxy)picolinonitrile]",108
5,"Cc1cnc(C2c3c(nc4n3CCCC4)CCN2C(=O)COc2ccc(C(=O)N(C)C3CC3)nc2Cl)c(F)c1 (stereo not drawn) [Example 1.6.3, 6-chloro-N-cyclopropyl-5-(2-(1-(3-fluoro-5-methyl-pyridin-2-yl)-3,4,6,7,8,9-hexahydroimidazo[1,2-a:5,4-c′]dipyridin-2(1H)-yl)-2-oxoethoxy)-N-methyl-picolinamide]",114
6,"Cc1ccc(C2c3c(nc4n3CCCC4)CCN2C(=O)COc2ccc(NS(C)(=O)=O)nc2Cl)c(F)c1 (stereo not drawn) [Example 1.2.1, N-(6-chloro-5-(2-(1-(2-fluoro-4-methylphenyl)-3,4,6,7,8,9-hexahydroimidazo[1,2-a:5,4-c′]dipyridin-2(1H)-yl)-2-oxoethoxy)pyridin-2-yl)methanesulfonamide]",41
7,"CS(=O)(=O)Nc1ccc(OCC(=O)N2CCc3nc4n(c3C2c2ncc(C3CC3)cc2F)CCCC4)c(Cl)n1 (stereo not drawn) [Example 1.3.1, N-(6-chloro-5-(2-(1-(5-cyclopropyl-3-fluoropyridin-2-yl)-3,4,6,7,8,9-hexahydroimidazo[1,2-a:5,4-c′]dipyridin-2(1H)-yl)-2-oxoethoxy)pyridin-2-yl)methanesulfonamide]",63
8,"Cc1nc(C)c(C2c3c(nc4n3CCCC4)CCN2C(=O)COc2ccc(C#N)nc2Cl)s1 (stereo not drawn) [Example 1.10.6, 6-chloro-5-(2-(1-(2,4-dimethylthiazol-5-yl)-3,4,6,7,8,9-hexahydroimidazo[1,2-a:5,4-c′]dipyridin-2(1H)-yl)-2-oxoethoxy)picolinonitrile]",77
9,"Cc1nc(C(C)C)sc1C1c2c(nc3n2CCCC3)CCN1C(=O)COc1ccc(NS(C)(=O)=O)nc1Cl (stereo not drawn) [Example 1.12.1, N-(6-chloro-5-(2-(1-(2-isopropyl-4-methylthiazol-5-yl)-3,4,6,7,8,9-hexahydroimidazo[1,2-a:5,4-c′]dipyridin-2(1H)-yl)-2-oxoethoxy)pyridin-2-yl)methanesulfonamide]",819
10,"CS(=O)(=O)Nc1ccc(OCC(=O)N2CCc3nc4n(c3C2c2ccc(Cl)cc2F)CCCCC4)c(Cl)n1 (stereo not drawn) [Example 3.1.1, N-(6-chloro-5-(2-(1-(4-chloro-2-fluorophenyl)-3,4,7,8,9,10-hexahydro-1H-pyrido[4′,3′:4,5]imidazo[1,2-a]azepin-2(6H)-yl)-2-oxoethoxy)pyridin-2-yl)methanesulfonamide]",26
11,"CC(=O)N1CCn2c(nc3c2C(c2sc(C)nc2C)N(C(=O)COc2ccc(-c4ncco4)nc2Cl)CC3)C1 (stereo not drawn) [Example 5.17.1, 1-(7-acetyl-1-(2,4-dimethylthiazol-5-yl)-3,4,6,7,8,9-hexahydropyrido[4′,3′:4,5]imidazo[1,2-a]pyrazin-2(1H)-yl)-2-((2-chloro-6-(oxazol-2-yl)pyridin-3-yl)oxy)ethanone]",27
12,"Cc1nc(C)c(C2c3c(nc4n3CCCC4)CCN2C(=O)COc2ccc(C(F)(F)F)nc2Cl)s1 (stereo not drawn) [Example 1.10.7, 2-((2-chloro-6-(trifluoromethyl)pyridin-3-yl)oxy)-1-(1-(2,4-dimethylthiazol-5-yl)-3,4,6,7,8,9-hexahydroimi-dazo[1,2-a:5,4-c′]dipyridin-2(1H)-yl)ethanone]",177
13,"Cc1nc(C)c(C2c3c(nc4n3CCCC4)CCN2C(=O)COc2ccc(C(=O)N(C)C)nc2Cl)s1 (stereo not drawn) [Example 1.10.5, 6-chloro-5-(2-(1-(2,4-dimethylthiazol-5-yl)-3,4,6,7,8,9-hexahydroimidazo[1,2-a:5,4-c′]dipyridin-2(1H)-yl)-2-oxoethoxy)-N,N-dimethylpicolinamide]",85
14,"Cc1cnc(C2c3c(nc4n3CCCC4)CCN2C(=O)COc2ccc(C(=O)N(C)C)nc2Cl)c(F)c1 (stereo not drawn) [Example 1.6.4, 6-chloro-5-(2-(1-(3-fluoro-5-methylpyridin-2-yl)-3,4,6,7,8,9-hexahydroimidazo[1,2-a:5,4-c′]dipyridin-2(1H)-yl)-2-oxoethoxy)-N,N-dimethylpicolinamide]",33
15,"CCc1nc(NS(C)(=O)=O)ncc1OCC(=O)N1CCc2nc3n(c2C1c1ccc(C2CC2)cc1F)CCCC3 (stereo not drawn) [Example 1.8.7, N-(5-(2-(1-(4-cyclopropyl-2-fluorophenyl)-3,4,6,7,8,9-hexahydroimidazo[1,2-a:5,4-c′]dipyridin-2(1H)-yl)-2-oxoethoxy)-4-ethylpyrimidin-2-yl)methanesulfonamide]",54

# Second part, the compound after the results:
row,IC50 [nM],SMILES
1,26,"CS(=O)(=O)Nc1ccc(OCC(=O)N2CCc3nc4n(c3C2c2ccc(Cl)cc2F)CCCC4)c(Cl)n1 (stereo not drawn) [Example 1.1.3, N-(6-chloro-5-(2-(1-(4-chloro-2-fluorophenyl)-3,4,6,7,8,9-hexahydroimidazo[1,2-a:5,4-c′]dipyridin-2(1H)-yl)-2-oxoethoxy)pyridin-2-yl)methanesulfonamide]"
2,11,"CC(=O)N1CCn2c(nc3c2C(c2ccc(Cl)cc2F)N(C(=O)COc2ccc(C(=O)N(C)C)nc2Cl)CC3)C1 (stereo not drawn) [Example 5.1.3, 5-(2-(7-acetyl-1-(4-chloro-2-fluorophenyl)-3,4,6,7,8,9-hexahydropyrido[4′,3′:4,5]imidazo[1,2-a]pyrazin-2(1H)-yl)-2-oxoethoxy)-6-chloro-N,N-dimethylpicolinamide]"
3,9,"O=C(NC1CC1)c1ccc(OCC(=O)N2CCc3nc4n(c3C2c2ccc(Cl)cc2F)CCS4)c(Cl)n1 (stereo not drawn) [Example 4.1.12, 6-chloro-5-(2-(5-(4-chloro-2-fluorophenyl)-2,3,7,8-tetrahydrothiazolo[2′,3′:2,3]imidazo[4,5-c]pyridin-6(5H)-yl)-2-oxoethoxy)-N-cyclopropylpicolinamide]"
4,8,"CCc1nc(NS(C)(=O)=O)ccc1OCC(=O)N1CCc2nc3n(c2C1c1sc(C)nc1C)CCCC3 (stereo not drawn) [Example 1.10.13, N-(5-(2-(1-(2,4-dimethylthiazol-5-yl)-3,4,6,7,8,9-hexahydroimidazo[1,2-a:5,4-c′]dipyridin-2(1H)-yl)-2-oxoethoxy)-6-ethylpyridin-2-yl)methanesulfonamide]"
5,8,"O=C(COc1ccc(N2CCOCC2)nc1Cl)N1CCc2nc3n(c2C1c1sccc1F)CCOC3 (stereo not drawn) [Example 6.6.1, 2-((2-chloro-6-morpholinopyridin-3-yl)oxy)-1-(6-(3-fluorothiophen-2-yl)-3,4,8,9-tetrahydro-1H-pyrido[4′,3′:4,5]imidazo[2,1-c][1,4]oxazin-7(6H)-yl)ethanone]"
6,13,"CN(C)C(=O)c1ccc(OCC(=O)N2CCc3nc4n(c3C2c2ccc(C3CC3)cc2F)CCOC4)c(Cl)c1 (stereo not drawn) [Example 6.2.2, 3-chloro-4-(2-(6-(4-cyclopropyl-2-fluorophenyl)-3,4,8,9-tetrahydro-1H-pyrido[4′,3′:4,5]imidazo[2,1-c][1,4]oxazin-7(6H)-yl)-2-oxoethoxy)-N,N-dimethylbenzamide]"
7,9,"CCc1nc(C(=O)NC2CC2)ccc1OCC(=O)N1CCc2nc3n(c2C1c1ccc(Cl)cc1F)CCCC3 (stereo not drawn) [Example 1.1.12, 5-(2-(1-(4-chloro-2-fluorophenyl)-3,4,6,7,8,9-hexahydroimidazo[1,2-a:5,4-c′]dipyridin-2(1H)-yl)-2-oxoethoxy)-N-cyclopropyl-6-ethylpicolinamide]"
8,25,"COCc1ccc(C2c3c(nc4n3CCCC4)CCN2C(=O)COc2ccc(NS(C)(=O)=O)nc2Cl)c(F)c1 (stereo not drawn) [Example 1.26.2, N-(6-chloro-5-(2-(1-(2-fluoro-4-(methoxymethyl)phenyl)-3,4,6,7,8,9-hexahydroimidazo[1,2-a:5,4-c′]dipyridin-2(1H)-yl)-2-oxoethoxy)pyridin-2-yl)methanesulfonamide]"
9,6,"CCc1nc(NS(C)(=O)=O)ccc1OCC(=O)N1CCc2nc3n(c2C1c1cc(F)c(C)cc1F)CCS3 (stereo not drawn) [Example 4.7.1, N-(5-(2-(5-(2,5-difluoro-4-methylphenyl)-2,3,7,8-tetrahydrothiazolo[2′,3′:2,3]imidazo[4,5-c]pyridin-6(5H)-yl)-2-oxoethoxy)-6-ethylpyridin-2-yl)methanesulfonamide]"
